Each structure is given as a SMILES string. Values after ≈ are worked out from the molar mass of the structure shown. Bounds are passed on as bounds.

For orientation: MIC means the least concentration at which growth counts as inhibited.

Holding throughout (test): Bacterial growth minimal inhibitory concentration (microdilution, cation-adjusted Mueller-Hinton Broth)
Holding throughout (assay type): cell-based
(In broth dilution the organism is exposed to a series of concentrations in liquid medium.)

Experiment [1] relates to Moraxella catarrhalis A894. To be noted: quinolone-sensitive strain. On the procedure: (§1) Minimal Inhibitory Concentrations (MICs; mg/L) were determined in cation-adjusted MuellerHinton Broth by a microdilution method following the description given in “Methods for Dilution Antimicrobial Susceptibility Tests for Bacteria that Grow Aerobically”, Approved standard, 7th ed., Clinical and Laboratory Standards Institute (CLSI) Document M7-A7, Wayne, Pa., USA, 2006.
(§2) All Example compounds were tested against several Gram positive and Gram negative bacteria. […] Staphylococcus aureus A798, Enterococcus faecium A949 and Acinetobacter baumanii T6474 are multiply-resistant strains (in particular quinolone-resistant), while Moraxella catarrhalis A894 is a quinolone-sensitive strain and Staphylococcus aureus ATCC29213 is a methicillin-sensitive and quinolone-sensitive strain.

The test system of experiment [2] is Enterococcus faecium A949. The following applies: multiply-resistant strain (in particular quinolone-resistant), read-out: MIC for E. faecium A949. On the procedure:
as §1, §2

Experiment [3] deals with Acinetobacter baumanii T6474. To be noted: Acinetobacter baumannii, multiply-resistant strain (in particular quinolone-resistant). As to the method:
as §1, §2

The test system of experiment [4] is Staphylococcus aureus ATCC29213. To be noted: methicillin-sensitive and quinolone-sensitive strain, read-out: MIC for S. aureus ATCC29213. As to the method:
as §1, §2

In experiment [5] the test system is Staphylococcus aureus A798. The following applies: multiply-resistant strain (in particular quinolone-resistant), read-out: MIC for S. aureus A798. On the procedure: as §1, §2

With `CCCc1ccc(-n2nc(CCCN[C@@H]3Cn4c(=O)ccc5ccc(F)c3c54)oc2=O)cc1` [Example 1, (S)-9-fluoro-1-{3-[5-oxo-4-(4-propyl-phenyl)-4,5-dihydro-[1,3,4]oxadiazol-2-yl]-propylamino}-1,2-dihydro-pyrrolo[3,2,1-ij]quinolin-4-one], the MIC is 2 µg/mL (≈ 4.46 µM) in experiment [1]; 1 µg/mL (≈ 2.23 µM) in experiment [2]; greater than 8 µg/mL in experiment [3]; 0.25 µg/mL (≈ 0.557 µM) in experiment [4]; 2 µg/mL (≈ 4.46 µM) in experiment [5].

Consider `CCCc1ccc(-n2nc(CCCN[C@H]3Cn4c(=O)cnc5ccc(F)c3c54)oc2=O)cc1` [Example 2, (R)-7-fluoro-6-{3-[5-oxo-4-(4-propyl-phenyl)-4,5-dihydro-[1,3,4]oxadiazol-2-yl]-propylamino}-5,6-dihydro-pyrrolo[1,2,3-de]quinoxalin-3-one], for which the minimal inhibitory concentration (MIC) in experiment [1] was 2 µg/mL (≈ 4.45 µM); in experiment [2] it was 1 µg/mL (≈ 2.22 µM); in experiment [3], greater than 8 µg/mL; in experiment [4] it was 0.125 µg/mL (≈ 0.278 µM); in experiment [5], 0.5 µg/mL (≈ 1.11 µM).

Take `CC(C)c1ccc(-n2nc(CCCN[C@@H]3Cn4c(=O)ccc5ccc(F)c3c54)oc2=O)cc1` [Example 3, (S)-9-fluoro-1-{3-[4-(4-isopropyl-phenyl)-5-oxo-4,5-dihydro-[1,3,4]oxadiazol-2-yl]-propylamino}-1,2-dihydro-pyrrolo[3,2,1-ij]quinolin-4-one]: the MIC is 2 µg/mL (≈ 4.46 µM) in experiment [1]; 0.25 µg/mL (≈ 0.557 µM) in experiment [2]; greater than 8 µg/mL in experiment [3]; 0.063 µg/mL (≈ 0.14 µM) in experiment [4]; 0.25 µg/mL (≈ 0.557 µM) in experiment [5].

Turning to `CCSc1ccc(-n2nc(CCCN[C@@H]3Cn4c(=O)ccc5ccc(F)c3c54)oc2=O)cc1` [Example 4, (S)-1-{3-[4-(4-ethylsulfanyl-phenyl)-5-oxo-4,5-dihydro-[1,3,4]oxadiazol-2-yl]-propylamino}-9-fluoro-1,2-dihydro-pyrrolo[3,2,1-ij]quinolin-4-one], the minimal inhibitory concentration (MIC) in experiment [1] was 0.5 µg/mL (≈ 1.07 µM); in experiment [2] it was 0.5 µg/mL (≈ 1.07 µM); in experiment [3] it was 8 µg/mL (≈ 17.1 µM); in experiment [4], 0.063 µg/mL (≈ 0.135 µM); in experiment [5], 0.5 µg/mL (≈ 1.07 µM).

With `CCSc1ccc(-n2nc(CCCN[C@H]3Cn4c(=O)cnc5ccc(F)c3c54)oc2=O)cc1` [Example 5, (R)-6-{3-[4-(4-ethylsulfanyl-phenyl)-5-oxo-4,5-dihydro-[1,3,4]oxadiazol-2-yl]-propylamino}-7-fluoro-5,6-dihydro-pyrrolo[1,2,3-de]quinoxalin-3-one], the MIC in experiment [1] was 0.25 µg/mL (≈ 0.535 µM); in experiment [2], 0.5 µg/mL (≈ 1.07 µM); in experiment [3] it was 4 µg/mL (≈ 8.56 µM); in experiment [4] it was 0.031 µg/mL (≈ 0.0663 µM); in experiment [5], 0.063 µg/mL (≈ 0.135 µM).

On to `O=C1COc2ccc(-n3nc(CCCN[C@H]4Cn5c(=O)cnc6ccc(F)c4c65)oc3=O)nc2N1` [Example 6, (R)-7-fluoro-6-{3-[5-oxo-4-(3-oxo-3,4-dihydro-2H-pyrido[3,2-b][1,4]oxazin-6-yl)-4,5-dihydro-[1,3,4]oxadiazol-2-yl]-propylamino}-5,6-dihydro-pyrrolo[1,2,3-de]quinoxalin-3-one], for which the minimal inhibitory concentration (MIC) in experiment [1] came to 0.5 µg/mL (≈ 1.04 µM); in experiment [2] it was 2 µg/mL (≈ 4.17 µM); in experiment [3] it was 2 µg/mL (≈ 4.17 µM); in experiment [4], 0.5 µg/mL (≈ 1.04 µM); in experiment [5], 0.5 µg/mL (≈ 1.04 µM).

For `O=C1COc2ccc(-n3nc(CCCN[C@@H]4Cn5c(=O)cnc6ccc(F)c4c65)oc3=O)nc2N1` [Example 7, (S)-7-fluoro-6-{3-[5-oxo-4-(3-oxo-3,4-dihydro-2H-pyrido[3,2-b][1,4]oxazin-6-yl)-4,5-dihydro-[1,3,4]oxadiazol-2-yl]-propylamino}-5,6-dihydro-pyrrolo[1,2,3-de]quinoxalin-3-one], the MIC is 0.25 µg/mL (≈ 0.521 µM) in experiment [1]; 2 µg/mL (≈ 4.17 µM) in experiment [2]; 2 µg/mL (≈ 4.17 µM) in experiment [3]; 0.25 µg/mL (≈ 0.521 µM) in experiment [4]; 0.5 µg/mL (≈ 1.04 µM) in experiment [5].

The values are drawn from patent US9487516B2, “Antibacterial oxadiazolone derivatives” (priority 2013, dated 2016).
